Test results taken from patent US20150376099A1, “New 3,3',5,5'-Tetraisopropyl-4,4'-Diphenol Crystal Form And Preparation Method Thereof” (XI' AN LIBANG PHARMACEUTICAL CO., LTD., priority 2013, published 2015).

Assays:
GAGA receptor = conditions: cited from earlier work
GABA = conditions: cited from earlier work
NMDA receptors = conditions: cited from earlier work
slow Ca^2+ channel = conditions: cited from earlier work
[1] = tested on: kainate-induced excitotoxicity; conditions: cited from earlier work
[2] = compared with propofol; cited from earlier work
brain = conditions: cited from earlier work
[3] = Stability of crystal forms under strong light; type: physicochemical; conditions: light stable box, illumination of 4500lux, 7 days
Description: (§1) As compared with the solvate, the anhydrate and hydrate are more useful as pharmaceutical crystal forms. The relative stability of the crystal form is an important indicator to be investigated in the research of drug polymorph, and the stability under high temperature, high humidity, strong light, and in water is investigated for the crystal forms I and II.
The crystal forms I and II prepared in Example 6 and 15 were respectively placed in a light stable box with illumination of 4500lux for 7 days and then characterized, and the result was shown in Table 4.

[4] = Stability of crystal forms under high temperature; type: physicochemical; conditions: ventilated oven at 80° C. for 7 days, then characterized
Protocol: as §1
The crystal forms I and II prepared in Example 6 and 15 were respectively placed in a ventilated oven at 80° C. for 7 days and then characterized, and the result was shown in Table 4.

[5] = Stability of crystal forms under high humidity; type: physicochemical
Protocol: as §1
The crystal forms I and II prepared in Example 6 and 15 were respectively placed in a constant temperature and humidity chamber at 80° C. and 75% RH for 7 days and then characterized, and the result was shown in Table 4.

[6] = Stability of crystal forms suspended in water; type: physicochemical; conditions: suspended in water at 25° C. for 7 days
Protocol: as §1
The crystal forms I and II prepared in Example 6 and 15 were placed in water at 25° C. and suspended for 7 days and then characterized, and the result was shown in Table 4.

For CC(C)c1cc(-c2cc(C(C)C)c(O)c(C(C)C)c2)cc(C(C)C)c1O [3,3′,5,5′-tetraisopropyl-4,4′-diphenol], the “Affinity for the GAGA receptor” value (GAGA receptor) is listed as “strong affinity”, the GABA agonistic effect (GABA) is listed as “GABA agonistic effect” and the “Antagonism of NMDA receptors” value (NMDA receptors) is listed as “could antagonize NMDA receptors”. For the same compound, the “Ca^2+ influx in the slow Ca^2+ channel” value (slow Ca^2+ channel) was “regulate Ca^2+ influx”, the “Effect on kainate-induced excitotoxicity” value [1] was “protective effect” and the Antioxidant effect [2] was “significantly stronger than propofol”. For the same compound, the “Protective effect of brain” value (brain) was “strong protective effect of brain”.

For CC(C)c1cc(-c2cc(C(C)C)c(O)c(C(C)C)c2)cc(C(C)C)c1O [crystal form I, 3,3′,5,5′-tetraisopropyl-4,4′-diphenol], the “Crystal form found after Light” value [3] was “good stability”.

In the case of CC(C)c1cc(-c2cc(C(C)C)c(O)c(C(C)C)c2)cc(C(C)C)c1O [crystal form II, 3,3′,5,5′-tetraisopropyl-4,4′-diphenol], the “Crystal form found after High temperature (80° C.)” value [4] is reported as “tendency of converting to the crystal form I”, the “Crystal form found after High temperature (80° C.)” value ([4]; listed as II) is reported as “I, II” and the “Stability under high humidity conditions” value ([5]; 80° C. and 75% RH for 7 days (as printed in text)) is reported as “tendency of converting to the crystal form I”. For the same compound, the “Crystal form found after High humidity (40° C., 75% RH)” value ([5]; constant temperature and humidity chamber, 40° C., 75% RH, 7 days) was “I (few), II”, the “Crystal form found after Water” value [6] was “tendency of converting to the crystal form I” and the “Crystal form found after Water” value ([6]; listed as II) was “I (few), II”.
